# Test results taken from ChEMBL document CHEMBL5150003, “Why All the Fury over Furin?” (J Med Chem, 2022).
# Numbered stars: 1 amine (or outer) side, 2 acyl side, 3 side chain; on linkers, the order of the positions; unused ones are H or OH. Bridge positions count the residues as written; N and C are the ends. Square brackets hold non-standard residues; d marks the D form. Peptide text beside a SMILES is read from it. * marks the point of attachment. NH(4-amidinobenzyl) = N=C(N)c1ccc(CN*)cc1; 2Nal = N[C@@H](Cc1ccc2ccccc2c1)C(=O)O; Glutaryl = O=C(CCCC(=O)[*:2])[*:1]; Suc = O=C(CCC(=O)[*:2])[*:1]; X3 = NC(N)=NC/C=C/CN*
# Legend:
# [1] = Protective activity against Pseudomonas aeruginosa exotoxin A-induced cytotoxicity in chinese hamster CHO-DG44 cells measured by WST-1 method; type: functional, Cricetulus griseus; conditions: dose 100 µM
# [2] = Cytotoxicity against chinese hamster CHO-DG44 cells assessed as cell viability at 100 uM and measured after 2 hrs by WST-1 method; type: toxicity, cell-based, Cricetulus griseus; conditions: read-out: Activity
# [3] = Cytotoxicity against human HT-1080 cells assessed as cell viability at 100 uM and measured after 2 hrs by WST-1 method; type: toxicity, cell-based; conditions: read-out: Activity
# [4] = Inhibition of migration of human HT-1080 cells at 100 uM measured by calcein AM/ethidium homodimer (EthD-1) staining method; type: functional
# RAW264.7 = experiment: Protective activity against Anthrax toxin-induced cytotoxicity in mouse RAW264.7 cells measured by WST-1 method; type: functional; conditions: dose 100 µM
# Furin [5] = target: T1, Furin (Homo sapiens, UniProt P09958); experiment: Inhibition of furin (unknown origin) using Pyr-RTKR-MCA as substrate incubated for 30 mins and measured by FRET assay
# T1 sequence (P09958 whole entry): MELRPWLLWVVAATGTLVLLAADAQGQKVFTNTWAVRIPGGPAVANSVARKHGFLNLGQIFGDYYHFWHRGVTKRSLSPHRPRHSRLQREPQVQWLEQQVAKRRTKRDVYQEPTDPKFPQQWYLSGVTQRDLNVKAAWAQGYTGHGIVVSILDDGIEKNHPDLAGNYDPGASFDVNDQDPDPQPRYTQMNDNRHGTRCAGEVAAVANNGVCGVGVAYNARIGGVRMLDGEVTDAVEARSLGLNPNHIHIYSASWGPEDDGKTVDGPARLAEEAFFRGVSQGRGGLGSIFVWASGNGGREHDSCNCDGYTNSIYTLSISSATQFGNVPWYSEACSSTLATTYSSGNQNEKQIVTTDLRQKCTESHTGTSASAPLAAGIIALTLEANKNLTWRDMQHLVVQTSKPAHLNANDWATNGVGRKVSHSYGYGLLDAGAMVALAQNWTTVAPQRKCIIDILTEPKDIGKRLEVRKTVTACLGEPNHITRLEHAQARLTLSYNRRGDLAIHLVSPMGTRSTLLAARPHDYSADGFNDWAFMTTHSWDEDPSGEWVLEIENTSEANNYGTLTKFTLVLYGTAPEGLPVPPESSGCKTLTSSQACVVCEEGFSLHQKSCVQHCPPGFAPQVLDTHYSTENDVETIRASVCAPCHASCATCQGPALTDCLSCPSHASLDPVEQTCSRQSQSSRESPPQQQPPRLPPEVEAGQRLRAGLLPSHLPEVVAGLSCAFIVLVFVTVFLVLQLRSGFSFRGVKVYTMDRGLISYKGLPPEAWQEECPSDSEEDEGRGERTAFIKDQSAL
# Furin [6] = target: T1, Furin; experiment: Inhibition of furin (unknown origin)
# Mus musculus [7] = experiment: Antifibrotic activity against bleomycin-induced mouse lung fibrosis model assessed as inhibition of hydroxyproline content in lung at 10 mg/kg, po administered once daily; type: functional
# Mus musculus [8] = experiment: Antifibrotic activity against bleomycin-induced mouse lung fibrosis model assessed as inhibition of TGF-beta secretion in lung at 10 mg/kg, po administered once daily; type: functional
# Furin [9] = target: T1, Furin; experiment: Inhibition of furin in human U2OS cells measured after 24 hrs by fluorescence assay; type: cell-based
# [10] = Stability in mouse plasma assessed as half-life; type: ADME, cell-free
# Furin [11] = target: T1, Furin; experiment: Inhibition of Recombinant vaccinia-expressed furin (unknown origin) using Pyr-RTKR-MCA as substrate and measured by fluorescence based assay
structure (smiles),measurement,setting,value
N=C(N)Nc1ccc(O[C@H]2C[C@@H](Oc3ccc(NC(=N)N)c4ccccc34)[C@H](NC(=N)N)C[C@@H]2NC(=N)N)c2ccccc12,Activity,[1],30%
same,"viability at 2 h, 100 µM",[2],> 90%
same,"viability at 2 h, 100 µM",[3],> 90%
same,inhibition at 100 µM,[4],40%
same,Activity,RAW264.7,80%
N=C(N)N[C@H]1C[C@@H](NC(=N)N)[C@H](Oc2ccc(C(=N)N)cc2Cl)C[C@@H]1Oc1ccc(C(=N)N)cc1Cl,Ki,Furin [5],5 nM
N=C(N)N[C@H]1C[C@@H](NC(=N)N)[C@H](Oc2ccc(C(=N)N)c3ccccc23)C[C@@H]1Oc1ccc(C(=N)N)c2ccccc12,Ki,Furin [5],50 nM
N=C(N)NCCC[C@@H]1NC(=O)CCCC(=O)NCCCC[C@@H](C(=O)N[C@@H](CCCNC(=N)N)C(=O)NCc2ccc(C(=N)N)cc2)NC(=O)[C@H](CCCNC(=N)N)NC1=O (RRKR-{NH(4-amidinobenzyl)}; linker N-3 via Glutaryl),Ki,Furin [6],0.504 nM
CC(C)(C)[C@H](NC(=O)[C@H](CCCNC(=N)N)NC(=O)Cc1ccc(CNC(=N)N)cc1)C(=O)N[C@@H](CCCN)C(=O)NCc1ccc(C(=N)N)cc1,Ki,Furin [6],0.0088 nM
N=C(N)c1ccc(Oc2cccc(Oc3ccc(C(=N)N)cc3)c2)cc1,Ki,Furin [5],100 nM
CS(=O)(=O)CCCN1CCN(c2ncc(Oc3cc(CN4CCC(CC(=O)O)CC4)cc(-c4cc(Cl)cc(Cl)c4)n3)cn2)CC1,inhibition in vivo at 10 mg/kg,Mus musculus [7],-1%
same,inhibition in vivo at 10 mg/kg,Mus musculus [8],40%
same,pXC50,Furin [9],7.6
N=C(N)N[C@H]1C[C@@H](NC(=N)N)[C@H](Oc2ccc(C(=N)N)cc2)C[C@@H]1Oc1ccc(C(=N)N)cc1,Ki,Furin [5],2 nM
N=C(N)NCCC[C@H](NC(=O)[C@@H]1CCCCNC(=O)CCC(=O)N[C@@H](Cc2ccccc2)C(=O)N[C@@H](Cc2ccc3ccccc3c2)C(=O)N[C@@H](CCCNC(=N)N)C(=O)N[C@@H](CCCNC(=N)N)C(=O)N[C@@H](CCCNC(=N)N)C(=O)N[C@@H](CCCNC(=N)N)C(=O)N1)C(=O)NCc1ccc(C(=N)N)cc1 (F[2Nal]RRRRKR-{NH(4-amidinobenzyl)}; linker N-7 via Suc),Ki,Furin [6],0.0538 nM
N=C(N)c1ccc(OC2CCCC(Oc3ccc(C(=N)N)cc3)C2)cc1 (stereo not drawn),Ki,Furin [5],1000 nM
N=C(N)N[C@H]1C[C@@H](NC(=N)N)[C@H](Oc2ccc(C(=N)N)cc2C(=N)N)C[C@@H]1Oc1ccc(C(=N)N)cc1C(=N)N,Ki,Furin [5],100 nM
N=C(N)NCCC[C@@H]1NC(=O)CCCC(=O)NCCCC[C@@H](C(=O)N[C@@H](CCCCN)C(=O)NCc2ccc(C(=N)N)cc2)NC(=O)[C@H](CCCNC(=N)N)NC1=O (RRKK-{NH(4-amidinobenzyl)}; linker N-3 via Glutaryl),Ki,Furin [6],1.05 nM
CC(C)[C@H](NC(=O)[C@H](CCCNC(=N)N)NC(=O)[C@@H](N)CCCNC(=N)N)C(=O)N[C@@H](CCCNC(=N)N)C(=O)NCc1ccc(C(=N)N)cc1 (H-RRVR-{NH(4-amidinobenzyl)}),Ki,Furin [6],0.11 nM
O=C(O)CC1CCN(Cc2cc(Oc3cnc(N4CCNCC4)nc3)nc(-c3cc(Cl)cc(Cl)c3)c2)CC1,inhibition in vivo at 10 mg/kg,Mus musculus [7],6%
same,inhibition in vivo at 10 mg/kg,Mus musculus [8],-11%
same,pXC50,Furin [9],7.6
C[C@@H](O)CN1CCN(c2ncc(Oc3cc(CN4CCC(CC(=O)O)CC4)cc(-c4cc(Cl)cc(Cl)c4)n3)cn2)CC1,inhibition in vivo at 10 mg/kg,Mus musculus [7],16%
same,inhibition in vivo at 10 mg/kg,Mus musculus [8],23%
same,pXC50,Furin [9],7.7
CN1CCN(c2ncc(Oc3cc(CN4CCC(CC(=O)O)CC4)cc(-c4cc(Cl)cc(Cl)c4)n3)cn2)CC1,inhibition in vivo at 10 mg/kg,Mus musculus [7],46%
same,inhibition in vivo at 10 mg/kg,Mus musculus [8],66%
same,pXC50,Furin [9],7.8
CC(C)(C)[C@@H]1NC(=O)[C@H](CCCNC(N)N)NC(=O)[C@H](CCCNC(=N)N)NC(=O)[C@@H](N)CCCCNC(=O)CCN2CCN(CCC(=O)NCCCC[C@@H](C(=O)NCc3ccc(C(=N)N)cc3)NC1=O)CC2,Ki,Furin [6],0.491 nM
CC(=O)N[C@@H](CCCN=C(N)N)C(=O)N[C@@H](C)C(=O)N[C@@H](CCCN=C(N)N)C(=O)N[C@@H](CCCN=C(N)N)C(=O)N[C@@H](CCCN=C(N)N)C(=O)N[C@@H](CCCCN)C(=O)N[C@@H](CCCCN)C(=O)NC/C=C/CN=C(N)N (Ac-RARRRKK-X3),Ki,Furin [6],7 nM
same,half-life,[10],3.3 h
CC(=O)NCC1CCN(Cc2cc(Oc3cnc(N4CCN(CCC(C)C(=O)O)CC4)nc3)nc(-c3cc(Cl)cc(Cl)c3)c2)CC1 (stereo not drawn),inhibition in vivo at 10 mg/kg,Mus musculus [7],62%
same,inhibition in vivo at 10 mg/kg,Mus musculus [8],75%
same,pXC50,Furin [9],8.3
N=C(N)Nc1ccc(OCCCOc2ccc(NC(=N)N)cc2)cc1,"viability at 2 h, 100 µM",[2],60%
same,"viability at 2 h, 100 µM",[3],60%
same,inhibition at 100 µM,[4],< 40%
same,Ki,Furin [11],8300 nM
N=C(N)Nc1ccc(O[C@H]2C[C@@H](Oc3ccc(NC(=N)N)c4ccccc34)[C@H](NC(=N)N)C[C@@H]2NC(=N)N)c(NC(=N)N)c1,"viability at 2 h, 100 µM",[2],> 80%
same,"viability at 2 h, 100 µM",[3],> 80%
same,inhibition at 100 µM,[4],> 60%
same,Activity,RAW264.7,50%
N=C(N)c1ccc(/N=N/Nc2ccc(C(=N)N)cc2)cc1 [DIMINAZENE],Ki,Furin [5],5420 nM
O=C(O)CC1CCN(Cc2cc(Oc3cnc(N4CCN(CCO)CC4)nc3)nc(-c3cc(Cl)cc(Cl)c3)c2)CC1,inhibition in vivo at 10 mg/kg,Mus musculus [7],11%
same,inhibition in vivo at 10 mg/kg,Mus musculus [8],31%
same,pXC50,Furin [9],7.6
N=C(N)NCCC[C@@H]1NC(=O)CCCC(=O)NCCCC[C@@H](C(=O)N[C@@H](CCCNC(=N)N)C(=O)NCc2ccc(C(=N)N)cc2)NC(=O)[C@H](CCCNC(=N)N)NC(=O)[C@H](CCCNC(=N)N)NC1=O (RRRKR-{NH(4-amidinobenzyl)}; linker N-4 via Glutaryl),Ki,Furin [6],0.68 nM
N=C(N)Nc1ccc(O[C@H]2C[C@@H](Oc3ccc(NC(=N)N)c4ccccc34)[C@H](NC(=N)N)C[C@@H]2NC(=N)N)cc1,Activity,[1],60%
same,"viability at 2 h, 100 µM",[2],> 50%
same,"viability at 2 h, 100 µM",[3],> 50%
same,Activity,RAW264.7,90%
CC(C)(C)[C@@H]1NC(=O)[C@H](CCCNC(=N)N)NC(=O)[C@H](CCCNC(=N)N)NC(=O)[C@@H](N)CCCCNC(=O)Cc2ccc(cc2)CNC(=O)CCCC(=O)NCCCC[C@@H](C(=O)NCc2ccc(C(=N)N)cc2)NC1=O,Ki,Furin [6],1.17 nM
CN1CCN(c2cnc(Oc3cc(CN4CCC(CC(=O)O)CC4)cc(-c4cc(Cl)cc(Cl)c4)n3)cn2)CC1,inhibition in vivo at 10 mg/kg,Mus musculus [7],4%
same,inhibition in vivo at 10 mg/kg,Mus musculus [8],22%
same,pXC50,Furin [9],7.3
CC(C)(C)[C@H](NC(=O)[C@H](CCCNC(=N)N)NC(=O)Cc1ccc(CN)cc1)C(=O)N[C@@H](CCCNC(=N)N)C(=O)NCc1ccc(C(=N)N)cc1,Ki,Furin [6],0.0224 nM
N=C(N)Nc1ccc(Oc2cccc(Oc3ccc(NC(=N)N)cc3)c2)cc1,"viability at 2 h, 100 µM",[2],> 20%
same,"viability at 2 h, 100 µM",[3],> 20%
same,inhibition at 100 µM,[4],90%
same,Activity,RAW264.7,70%
same,Ki,Furin [11],1500 nM
CC(C)(C)[C@H](NC(=O)[C@H](CCCNC(=N)N)NC(=O)Cc1ccc(CNC(=N)N)cc1)C(=O)N[C@@H](CCCNC(=N)N)C(=O)NCc1ccccc1,IC50,Furin [6],0.56 nM
N=C(N)N[C@H]1C[C@@H](NC(=N)N)[C@H](Oc2ccc(C(=N)N)cn2)C[C@@H]1Oc1ccc(C(=N)N)cn1,Ki,Furin [5],20 nM
N=C(N)NCCC[C@@H]1NC(=O)[C@H](Cc2ccc3ccccc3c2)NC(=O)[C@H](Cc2ccccc2)NC(=O)CCC(=O)NCCCC[C@@H](C(=O)N[C@@H](CCCCN)C(=O)NCc2ccc(C(=N)N)cc2)NC(=O)[C@H](CCCNC(=N)N)NC(=O)[C@H](CCCNC(=N)N)NC1=O (F[2Nal]RRRKK-{NH(4-amidinobenzyl)}; linker N-6 via Suc),Ki,Furin [6],0.618 nM
Cc1cc(O[C@H]2C[C@@H](Oc3ccc(C(=N)N)c(C)c3)[C@H](NC(=N)N)C[C@@H]2NC(=N)N)ccc1C(=N)N,Ki,Furin [5],10 nM
N=C(N)Nc1ccc(O[C@H]2C[C@@H](Oc3ccc(NC(=N)N)cc3)[C@H](NC(=N)N)C[C@@H]2NC(=N)N)cc1,Activity,[1],>20%
same,"viability at 2 h, 100 µM",[2],> 90%
same,"viability at 2 h, 100 µM",[3],> 90%
same,Activity,RAW264.7,>90%
N=C(N)Nc1ccc(OC2CCCC(Oc3ccc(NC(=N)N)cc3)C2)cc1 (stereo not drawn),"viability at 2 h, 100 µM",[2],70%
same,"viability at 2 h, 100 µM",[3],70%
same,inhibition at 100 µM,[4],40%
same,Activity,RAW264.7,30%
same,Ki,Furin [11],5500 nM
N=C(N)Nc1ccc(O[C@H]2C[C@@H](Oc3ccc(NC(=N)N)cn3)[C@H](NC(=N)N)C[C@@H]2NC(=N)N)nc1,Activity,[1],100%
same,"viability at 2 h, 100 µM",[2],> 90%
same,"viability at 2 h, 100 µM",[3],> 90%
same,Activity,RAW264.7,80%
N=C(N)Nc1ccc(O[C@H]2C[C@@H](Oc3ccc(NC(=N)N)cc3NC(=N)N)[C@H](NC(=N)N)C[C@@H]2NC(=N)N)c(NC(=N)N)c1,Activity,[1],>70%
same,"viability at 2 h, 100 µM",[2],> 90%
same,"viability at 2 h, 100 µM",[3],> 90%
same,inhibition at 100 µM,[4],60%
same,Activity,RAW264.7,>80%
